The values that follow come from patent US20220089663A1, “PROTEINS AND FLUOROPHORE-CONTAINING COMPOUNDS SELECTIVE FOR NaV1.7” (MEMORIAL SLOAN KETTERING CANCER CENTER, priority 2019, published 2022).

One series deals with T1, hNav1.1 (Homo sapiens, UniProt P35498).
T1 construct: host or cells: HEK293
The series can be described thus: automated whole-cell patch clamp (QPatch 16X), HEK293-hNav1.1. It is filed as cell-based. The note with it: HEK293 cells stably expressing human channel; read-out: IC50 Nav1.1.

The next series has as its target T2, hNav1.2 (Homo sapiens, UniProt Q99250).
T2 construct: host or cells: HEK293
The series can be described thus: automated whole-cell patch clamp (QPatch 16X), HEK293-hNav1.2. The class given is cell-based. The settings on record: HEK293 cells stably expressing human channel; read-out: IC50 Nav1.2. A general note: Patch clamp records ionic current or voltage across a cell membrane.

A further series concerns the target T3, hNav1.3 (Homo sapiens, UniProt Q9NY46).
T3 construct: host or cells: HEK293
Nature of the series: automated whole-cell patch clamp (QPatch 16X), HEK293-hNav1.3. It is filed as cell-based. The note with it: HEK293 cells stably expressing human channel; read-out: IC50 Nav1.3.

The target of another series is T4, hNav1.4 (Homo sapiens, UniProt P35499).
T4 construct: host or cells: HEK293
T4 sequence (P35499 whole entry): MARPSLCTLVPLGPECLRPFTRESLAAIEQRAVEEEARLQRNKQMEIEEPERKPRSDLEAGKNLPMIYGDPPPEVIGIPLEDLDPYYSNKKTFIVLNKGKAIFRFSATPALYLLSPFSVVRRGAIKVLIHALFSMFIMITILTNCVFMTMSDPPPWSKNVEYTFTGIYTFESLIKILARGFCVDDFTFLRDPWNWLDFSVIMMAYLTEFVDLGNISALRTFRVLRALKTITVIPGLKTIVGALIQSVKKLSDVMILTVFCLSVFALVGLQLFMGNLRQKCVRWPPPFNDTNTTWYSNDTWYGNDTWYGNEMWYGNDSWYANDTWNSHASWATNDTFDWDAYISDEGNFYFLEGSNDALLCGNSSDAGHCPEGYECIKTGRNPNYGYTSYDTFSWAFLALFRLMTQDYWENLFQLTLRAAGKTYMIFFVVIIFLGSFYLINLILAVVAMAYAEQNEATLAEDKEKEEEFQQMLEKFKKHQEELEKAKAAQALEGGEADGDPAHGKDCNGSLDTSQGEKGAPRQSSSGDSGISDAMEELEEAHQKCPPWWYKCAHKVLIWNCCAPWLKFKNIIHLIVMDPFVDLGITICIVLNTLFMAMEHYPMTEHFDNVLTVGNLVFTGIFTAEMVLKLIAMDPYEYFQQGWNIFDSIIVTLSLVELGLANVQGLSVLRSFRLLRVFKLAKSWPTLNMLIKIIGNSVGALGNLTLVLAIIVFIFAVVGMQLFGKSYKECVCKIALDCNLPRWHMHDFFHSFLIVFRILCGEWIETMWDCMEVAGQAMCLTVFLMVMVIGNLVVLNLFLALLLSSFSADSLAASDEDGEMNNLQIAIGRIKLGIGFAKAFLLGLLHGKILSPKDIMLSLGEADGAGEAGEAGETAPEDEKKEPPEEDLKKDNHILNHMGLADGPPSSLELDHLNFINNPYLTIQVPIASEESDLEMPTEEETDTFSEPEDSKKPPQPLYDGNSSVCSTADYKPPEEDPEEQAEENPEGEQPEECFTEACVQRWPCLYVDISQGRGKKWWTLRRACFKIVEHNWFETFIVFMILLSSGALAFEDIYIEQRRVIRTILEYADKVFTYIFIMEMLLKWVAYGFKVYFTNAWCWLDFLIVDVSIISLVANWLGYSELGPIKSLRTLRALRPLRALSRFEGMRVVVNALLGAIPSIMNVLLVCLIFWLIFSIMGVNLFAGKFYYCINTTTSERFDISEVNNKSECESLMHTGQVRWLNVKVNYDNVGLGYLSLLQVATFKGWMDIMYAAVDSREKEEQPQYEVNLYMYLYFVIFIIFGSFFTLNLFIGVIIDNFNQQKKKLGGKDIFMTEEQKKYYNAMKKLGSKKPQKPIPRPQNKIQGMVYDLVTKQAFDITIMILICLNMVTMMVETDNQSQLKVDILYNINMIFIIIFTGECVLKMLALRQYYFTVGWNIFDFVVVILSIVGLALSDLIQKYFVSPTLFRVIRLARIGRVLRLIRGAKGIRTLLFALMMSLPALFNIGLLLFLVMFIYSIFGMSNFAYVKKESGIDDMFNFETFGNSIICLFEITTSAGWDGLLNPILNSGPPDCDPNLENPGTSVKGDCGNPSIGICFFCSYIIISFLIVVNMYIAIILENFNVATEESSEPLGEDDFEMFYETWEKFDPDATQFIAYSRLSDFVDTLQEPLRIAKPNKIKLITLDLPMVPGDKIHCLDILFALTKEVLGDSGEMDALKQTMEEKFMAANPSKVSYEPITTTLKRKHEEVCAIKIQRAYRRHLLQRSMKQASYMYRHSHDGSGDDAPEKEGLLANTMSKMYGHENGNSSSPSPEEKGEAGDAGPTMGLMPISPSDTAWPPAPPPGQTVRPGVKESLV
T4 sequence (Q07699 19-218, further chain): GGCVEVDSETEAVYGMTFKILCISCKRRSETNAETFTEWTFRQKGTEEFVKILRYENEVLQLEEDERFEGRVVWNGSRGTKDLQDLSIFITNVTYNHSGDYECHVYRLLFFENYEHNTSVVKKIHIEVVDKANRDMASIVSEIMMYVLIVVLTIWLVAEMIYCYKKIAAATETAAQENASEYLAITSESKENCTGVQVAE
Nature of the series: automated whole-cell patch clamp (QPatch 16X), HEK293-hNav1.4. It is filed as cell-based. The note with it: HEK293 cells stably expressing human channel; read-out: IC50 Nav1.4.

The next series concerns the target T5, hNav1.5 (Homo sapiens, UniProt Q14524).
T5 construct: host or cells: HEK293
The series can be described thus: automated whole-cell patch clamp (QPatch 16X), HEK293-hNav1.5. The class given is cell-based. The note with it: HEK293 cells stably expressing human channel; read-out: IC50 Nav1.5.

For a further series, the target named is T6, hNav1.6 (Homo sapiens, UniProt Q9UQD0).
T6 construct: host or cells: HEK293
The series can be described thus: automated whole-cell patch clamp (QPatch 16X), HEK293-hNav1.6. The class given is cell-based. The settings on record: HEK293 cells stably expressing human channel; read-out: IC50 Nav1.6.

In the next series the target is T7, hNav1.7 (Homo sapiens, UniProt Q15858).
T7 construct: host or cells: HEK293
T7 sequence (Q15858 whole entry): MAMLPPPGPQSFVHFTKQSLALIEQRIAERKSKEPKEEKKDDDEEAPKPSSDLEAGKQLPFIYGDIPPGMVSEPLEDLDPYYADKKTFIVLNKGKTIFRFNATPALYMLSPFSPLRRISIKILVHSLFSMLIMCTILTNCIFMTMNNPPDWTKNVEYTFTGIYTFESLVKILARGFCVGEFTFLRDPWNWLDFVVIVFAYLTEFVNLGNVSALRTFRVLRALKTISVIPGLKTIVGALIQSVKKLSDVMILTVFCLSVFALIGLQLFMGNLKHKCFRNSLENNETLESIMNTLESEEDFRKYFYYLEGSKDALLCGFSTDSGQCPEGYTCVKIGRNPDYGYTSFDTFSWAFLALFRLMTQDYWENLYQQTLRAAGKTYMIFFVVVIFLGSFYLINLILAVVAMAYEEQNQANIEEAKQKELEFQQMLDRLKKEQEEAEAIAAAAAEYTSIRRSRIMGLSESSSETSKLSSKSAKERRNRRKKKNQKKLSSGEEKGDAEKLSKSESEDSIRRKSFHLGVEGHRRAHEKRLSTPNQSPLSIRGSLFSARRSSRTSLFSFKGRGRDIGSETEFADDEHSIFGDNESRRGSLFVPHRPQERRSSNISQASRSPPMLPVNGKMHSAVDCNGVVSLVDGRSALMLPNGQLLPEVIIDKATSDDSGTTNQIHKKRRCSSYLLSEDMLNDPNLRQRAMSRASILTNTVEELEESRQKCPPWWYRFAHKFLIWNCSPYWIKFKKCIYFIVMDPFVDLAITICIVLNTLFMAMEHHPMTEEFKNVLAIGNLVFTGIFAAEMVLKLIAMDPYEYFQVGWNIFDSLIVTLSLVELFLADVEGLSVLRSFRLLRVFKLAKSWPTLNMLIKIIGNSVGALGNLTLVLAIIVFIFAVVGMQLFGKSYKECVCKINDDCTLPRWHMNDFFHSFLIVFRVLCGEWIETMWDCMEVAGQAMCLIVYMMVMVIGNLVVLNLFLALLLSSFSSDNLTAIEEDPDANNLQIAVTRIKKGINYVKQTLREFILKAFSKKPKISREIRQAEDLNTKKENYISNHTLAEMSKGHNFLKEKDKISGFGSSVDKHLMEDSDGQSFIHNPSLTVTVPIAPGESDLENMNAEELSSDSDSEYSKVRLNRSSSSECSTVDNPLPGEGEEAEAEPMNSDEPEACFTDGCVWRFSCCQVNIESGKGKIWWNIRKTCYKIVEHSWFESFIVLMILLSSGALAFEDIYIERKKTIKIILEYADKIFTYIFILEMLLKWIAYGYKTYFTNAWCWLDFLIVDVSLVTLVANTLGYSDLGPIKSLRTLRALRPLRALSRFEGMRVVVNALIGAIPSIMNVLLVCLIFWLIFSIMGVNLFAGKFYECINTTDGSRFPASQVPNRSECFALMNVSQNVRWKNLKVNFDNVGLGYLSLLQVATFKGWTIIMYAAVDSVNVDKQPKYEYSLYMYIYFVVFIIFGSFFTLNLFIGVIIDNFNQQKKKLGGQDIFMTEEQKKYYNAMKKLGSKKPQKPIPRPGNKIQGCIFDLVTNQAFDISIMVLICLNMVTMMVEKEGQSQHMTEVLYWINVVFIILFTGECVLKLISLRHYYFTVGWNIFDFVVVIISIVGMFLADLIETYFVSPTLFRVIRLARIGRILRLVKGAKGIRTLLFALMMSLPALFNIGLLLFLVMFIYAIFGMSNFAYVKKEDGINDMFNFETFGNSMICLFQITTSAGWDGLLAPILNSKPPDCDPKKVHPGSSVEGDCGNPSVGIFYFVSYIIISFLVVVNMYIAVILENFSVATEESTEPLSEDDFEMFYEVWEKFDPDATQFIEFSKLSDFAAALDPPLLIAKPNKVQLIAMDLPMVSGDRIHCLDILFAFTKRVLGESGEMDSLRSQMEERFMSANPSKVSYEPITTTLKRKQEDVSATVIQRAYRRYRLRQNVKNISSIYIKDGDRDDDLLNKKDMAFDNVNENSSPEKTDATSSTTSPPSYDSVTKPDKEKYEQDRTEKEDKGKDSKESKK
T7 sequence (Q07699 19-218, further chain): as the sequence (Q07699 19-218, further chain) above
Nature of the series: automated whole-cell patch clamp (QPatch 16X), HEK293-hNav1.7. The class given is cell-based. The note with it: HEK293 cells stably expressing human channel; read-out: IC50 Nav1.7.

Series [1] deals with mouse sciatic nerves. Nature of the series: epifluorescence imaging (IVIS Spectrum) of sciatic nerves and organs 30 min after injection. The class given is in vivo. The settings on record: 30 min. The protocol: Animal Model. Female athymic nude mice (4-8 week-old, athymic-Nude (outbred) (Stock #: 088; Envigo, USA) were allowed to acclimatize at the Memorial Sloan Kettering Cancer Center (MSK) vivarium for 1 week with ad libitum food and water prior to the experimental procedure. For imaging experiments, animals were sacrificed 30 min post-tail vein injection of Hs1a-FL, Hs1a/Hs1a-FL, Hsp1a-FL, Hsp1a/Hsp1a-FL, or PBS. All animal experiments were performed in accordance with institutional guidelines and approved by the IACUC of MSK, following NIH guidelines for animal welfare.
Epifluorescence Imaging. Animals were intravenously injected with Hsp1a-FL (7 nmol, 68 μM of Hsp1a-FL in 100 μL of PBS, n=9), or Hs1a-FL (4 nmol, 45 μM of Hs1a-FL in 100 μL of PBS, n=3). To assess the specificity of the Hsp1a-FL or Hs1a-FL accumulation, animals were injected with a combination of Hsp1a and Hsp1a-FL (Hsp1a-FL, 68 μM, 7 nmol and Hsp1a 204 μM, 21 nmol in 100 μL PBS, n=9), Hs1a and Hs1a-FL (Hs1a-FL, 45 μM, 4 nmol and Hs1a, 120 μM, 12 nmol in 100 μL PBS, n=3) or PBS (n=9). Animals were sacrificed 30 min post-injection and epifluorescence images obtained. Epifluorescence images of the right sciatic nerve (RSN) and the left sciatic nerve (LSN) were obtained in situ. Epifluorescence of the biodistribution of the peptides in excited RSN, LSN, muscle, heart, kidney, liver, and brain were acquired with IVIS Spectrum (PerkinElmer) using a predefined GFP filterset (e.g., excitation=465/30 nm, emission=520-580 nm) based on the particular fluorophore employed in the compounds. Autofluorescence was removed through spectral unmixing. Semiquantitative analysis of the Hsp1a-FL or Hs1a-FL signal was conducted by measuring the average radiant efficiency (in units of unit [p/s/cm^2/sr]/[μW/cm^2]) in regions of interest (ROIs) that were placed on all resected organs under white light guidance.

In series [2] the test system is mouse sciatic nerves. Nature of the series: confocal microscopy / histology of sciatic nerve sections after injection. The class given is in vivo. The settings on record: 30 min. The protocol:
Confocal Microscopy. 5 or 10 μm cryosections of OCT-embedded sciatic nerve tissues from mice intravenously injected with Hsp1a-FL (7 nmol, 68 μM of Hsp1a-FL in 100 μL of PBS), Hsp1a/Hsp1a-FL (Hsp1a-FL, 68 μM, 7 nmol, and Hsp1a 204 μM, 21 nmol in 100 μL PBS), Hs1a-FL (4 nmol, 45 μM of Hs1a-FL in 100 μL of PBS), with the block Hs1a/Hs1a-FL (Hs1a-FL, 45 μM, 4 nmol and Hs1a 120 μM, 12 nmol in 100 μL PBS) or PBS were used to determine the distribution and localization of fluorescently-tagged peptide. Animal organs were incubated with Hoechst 33342 (blue, 20 μM, 1 nmol in 50 μL of PBS) to counterstain nuclei before embedding in Mowiol mounting medium. Fresh tissue samples were counterstained with 33342 (blue, 20 μM, 1 nmol in 50 μL of PBS) up to 90 min post-mortem and placed directly on a microscope slide for imaging.

In a further series the target is hERG (Homo sapiens, UniProt Q12809). The series can be described thus: Hs1a off-target voltage-gated potassium channel, hERG. The class given is cell-based. The protocol:
Hs1a was isolated from the venom of the Chinese bird spider, Haplopelma schmidti. To assess the selectivity of Hs1a for Nav channel subtypes, Hs1a was tested on HEK cells stably transfected with human Nav1.1-Nav1.7 channels using automated patch clamp techniques. […] The IC50 value for hNav1.7 obtained in mammalian cells correlates with the IC50 obtained by two-electrode voltage clamp on hNav1.7 expressed in X. laevis oocytes. The selectivity of Hs1a for off-target voltage-gated calcium and potassium channels were also tested.
In general terms: Block of hERG is tested as a sign of cardiac risk.

The mark [3] stands for this setting: 4 nmol plus 12 nmol unmodified Hs1a.

pIC50: −log10 of the molar value. Where only a bound is given, the exact number is not on record here.

One may read the pIC50 as −log10 of the IC50, conventionally taken in molar units. Consider `CC(C)C[C@H](NC(=O)[C@H](CCCCN)NC(=O)CNC(=O)[C@H](CCCCN)NC(=O)[C@@H]1CSSC[C@@H]2NC(=O)[C@H](CCCCN)NC(=O)[C@H](CC(=O)O)NC(=O)[C@H](CC(N)=O)NC(=O)[C@H](CCCCNC(=O)CCCCC[N+]3=C(/C=C/C4=CC(=C/C=C5/N(C)c6ccc7ccccc7c6C5(C)C)/CCC4)C(C)(C)c4c3ccc3ccccc43)NC(=O)[C@@H]3CCCN3C(=O)[C@H](CC(N)=O)NC(=O)[C@@H]3CSSC[C@H](NC(=O)[C@H](C(C)C)NC(=O)[C@H](CC(C)C)NC(=O)[C@H](CC(N)=O)NC(=O)[C@H](C)NC(=O)[C@H](CSSC[C@H](NC(=O)[C@H](CC(=O)O)NC(=O)[C@H](CC(N)=O)NC(=O)CN)C(=O)N[C@@H](CC(C)C)C(=O)NCC(=O)N[C@@H](Cc4ccccc4)C(=O)N[C@@H](Cc4c[nH]c5ccccc45)C(=O)N[C@@H](CO)C(=O)N[C@@H](C)C(=O)N3)NC2=O)C(=O)N[C@@H](CO)C(=O)N[C@@H](CO)C(=O)N[C@@H](CCCCN)C(=O)N[C@@H](Cc2c[nH]cn2)C(=O)N[C@@H](CCCCN)C(=O)N[C@@H](Cc2c[nH]c3ccccc23)C(=O)N1)C(=O)O` [Hs1a-FL], for which the pIC50 was 7.71 on hNav1.1; 7.09 on hNav1.2; 6.97 at hNav1.3; < 5.52 at hNav1.4; < 5.52 at hNav1.5; 7.72 on hNav1.6. The pIC50 at hNav1.7 is 7.57. Also, the “radiant efficiency, resected sciatic nerves” value in the series with mouse sciatic nerves [1] (4 nmol i.v. alone) was 1.6±0.3×10^5 [p/s/cm^2/sr]/[μW/cm^2]. Moreover, in the series with mouse sciatic nerves [1] (4 nmol i.v.), the “radiant efficiency, brain” value is 0.2±0.1×10^7 [p/s/cm^2/sr]/[μW/cm^2]. Also, in the series with mouse sciatic nerves [1] (4 nmol i.v.), the “radiant efficiency, kidney” value was 1.4±1.1×10^7 [p/s/cm^2/sr]/[μW/cm^2]. For the same compound, in the series with mouse sciatic nerves [1] (4 nmol i.v.), the “radiant efficiency, liver” value was 3.0±2.0×10^7 [p/s/cm^2/sr]/[μW/cm^2]. Also, the “radiant efficiency, spleen” value in the series with mouse sciatic nerves [1] (4 nmol i.v.) was 0.8±0.5×10^7 [p/s/cm^2/sr]/[μW/cm^2]. In the series on mouse sciatic nerves [1] (setting [3]), the “radiant efficiency, resected sciatic nerves, co-injection (blocking)” value is 0.09±0.03×10^5 [p/s/cm^2/sr]/[μW/cm^2]. The “signal in sciatic nerve sections” value with mouse sciatic nerves [2] (4 nmol i.v. alone) is on record as “confirmed the presence of Hs1a-FL signal”. The “signal in sciatic nerve sections, blocked mice” value in the series on mouse sciatic nerves [2] (setting [3]) is recorded as “No signal was detected”.

As to `CC(C)C[C@H](NC(=O)[C@H](CCCCN)NC(=O)CNC(=O)[C@H](CCCCN)NC(=O)[C@@H]1CSSC[C@@H]2NC(=O)[C@H](CCCCN)NC(=O)[C@H](CC(=O)O)NC(=O)[C@H](CC(N)=O)NC(=O)[C@H](CCCCN)NC(=O)[C@@H]3CCCN3C(=O)[C@H](CC(N)=O)NC(=O)[C@@H]3CSSC[C@H](NC(=O)[C@H](C(C)C)NC(=O)[C@H](CC(C)C)NC(=O)[C@H](CC(N)=O)NC(=O)[C@H](C)NC(=O)[C@H](CSSC[C@H](NC(=O)[C@H](CC(=O)O)NC(=O)[C@H](CC(N)=O)NC(=O)CN)C(=O)N[C@@H](CC(C)C)C(=O)NCC(=O)N[C@@H](Cc4ccccc4)C(=O)N[C@@H](Cc4c[nH]c5ccccc45)C(=O)N[C@@H](CO)C(=O)N[C@@H](C)C(=O)N3)NC2=O)C(=O)N[C@@H](CO)C(=O)N[C@@H](CO)C(=O)N[C@@H](CCCCN)C(=O)N[C@@H](Cc2c[nH]cn2)C(=O)N[C@@H](CCCCN)C(=O)N[C@@H](Cc2c[nH]c3ccccc23)C(=O)N1)C(=O)O` [Hs1a], the negative logarithm of the IC50 (pIC50) at hERG was < 5.52.
